Results published in patent US20150344407A1, “FENDILINE DERIVATIVES AND METHODS OF USE THEREOF” (THE BOARD OF REGENTS OF THE UNIVERSITY OF TEXAS SYSTEM, priority 2012, published 2015).
Counter-ions that a name gives are not always drawn.

Experiments:
[1] = target: T1, GFP-tagged K-rasG12V (oncogenic K-ras) in MDCK cells (Homo sapiens, UniProt P01116, G12V); experiment: K-ras mislocalization, confocal fluorescence microscopy with densitometric analysis; assay type: cell-based, canine; details: 48 hours, MDCK cells stably expressing GFP-tagged K-rasG12V, normalized to vehicle-treated control; for inhibition at 4 µM: 4 μM compound, read-out: % Mislocalization of K-ras when treated with 4 μM compound
T1 construct: mGFP-tagged full length oncogenic mutant K-Ras (GFP-K-RasG12V); expressed in transfected cells
Procedure: FIGS. 1 & 2—Representative images showing degree of K-ras mislocalization with compound treatment (images corresponds with column 3 of Table 2). MDCK cells stably expressing GFP-tagged K-rasG12V were treated with vehicle or compound (4 μM) for 48 hours and fixed with 4% paraformaldehyde. The coverslips were mounted in Mowiol and imaged by confocal microscopy (Nikon A1) using a 60× objective. The number above each image corresponds the fendiline derivative code.
(§1) To determine the effect of compounds on localization of K-ras, Mardine Darby canine kidney epithelial (MDCK) cells stably expressing GFP-tagged K-rasG12V (oncogenic K-ras) grown on cover slips were treated with vehicle or compound (4 μM) for 48 hours and fixed with 4% paraformaldehyde. The coverslips were mounted in Mowiol and imaged by confocal microscopy (Nikon A1) using a 60× objective. Images were analyzed by ImageJ software. Densitometric analysis was performed on images to determine the degree of K-ras mislocalization. To determine the effect of compounds on K-ras function, MDCK cells stably expressing GFP-tagged K-rasG12V were treated with vehicle or compound (4 μM) for 48 hours. Following treatment, whole cell lysates were prepared and subjected SDS-PAGE and western blotting to quantify the level of phosphorylated ERK, a protein activated downstream of K-ras. All calculations were normalized to vehicle-treated control.
Fluorescence microscopy: 2×10^5 or 1×10^5 cells/well were seeded in 6- or 12-well cell culture plates, respectively, containing glass coverslips. 24 h after seeding, fresh medium containing 1% vehicle (Dimethyl sulfoxide, DMSO) or 4 μM test compound (1:100 dilution, such that DMSO was 1%) was added and incubated for 48 h, following which the cells were fixed with 4% paraformaldehyde and coverslips were mounted in Mowiol. Cells were imaged in the GFP wavelength (488 nm) using a confocal microscope (Nikon A1) with 60× objective. Images were saved in tagged imaged file format (tiff) and analyzed by ImageJ software. The densitometric ratio of plasma membrane localized K-Ras versus total K-Ras was calculated and normalized to vehicle-treated control.

[2] = system: phosphorylated ERK, a protein activated downstream of K-ras; experiment: Western immunoblotting for pERK (inhibition of ERK activation); assay type: cell-based, canine; details: Canis lupus familiaris; 4 μM compound, 48 hours, MDCK cells stably expressing GFP-tagged K-rasG12V; whole cell lysates; normalized to vehicle-treated control; read-out: % Inhibition of ERK activation when treated with 4 μM compound
Procedure: as §1
Western Immunoblotting for pERK: 2×10^5 cells/well were seeded in 6-well cell culture plates. 24 h after seeding, fresh medium containing 1% vehicle (DMSO) or 4 μM test compound (1:100 dilution, such that DMSO was 1%) was added and incubated for 48 h. Cells were lysed in Buffer B (50 mM Tris [pH 7.5], 75 mM NaCl, 25 mM NaF, 5 mM MgCl2, 5 mM EGTA, 1 mM dithiothreitol, 100 μM NaVO4, 1% Nonidet P-40 plus protease inhibitors). SDS-PAGE and immunoblotting with the anti-phospho-p44/42 mitogen-activated protein kinase (MAPK) (ERK1/2) antibody was performed using 20 μg of each whole cell lysate. Signal was detected by enhanced chemiluminescence (SuperSignal; Pierce, Thermo Fisher Scientific, Rockford, Ill.) and imaged by FluorChemQ (Alpha Inotech, San Leandro, Calif.). Quantification of intensities was performed using FluorChemQ software. Results were normalized to vehicle-treated control.

| SMILES | inhibition at 4 µM [1] [%] | inhibition at 4 µM [2] [%] | % Mislocalization of K-ras when treated with 4 μM compound [1] [%] |
| --- | --- | --- | --- |
| CC(C)=CCC/C(C)=C/CN[C@H](C)c1ccccc1 [Compound 21, (R,E)-3,7-dimethyl-N-(1-phenylethyl)octa-2,6-dien-1-amine] | 8.29 | 3.75 | – |
| CC(NCC=C(c1ccccc1)c1ccccc1)c1ccccc1 (centres unmarked) [Compound 12, 3,3-diphenyl-N-(1-phenylethyl)prop-2-en-1-amine hydrochloride] | 37.7 | 55.1 | – |
| C[C@@H](OC/C=C/c1ccccc1)c1ccccc1 [Compound 24, (R,E)-(1-(cinnamyloxy)ethyl)benzene] | 18 | 7.19 | – |
| C[C@@H](NC/C=C/c1cccc2ccccc12)c1ccccc1 [Compound 32, (R,E)-3-(naphthalen-1-yl)-N-(1-phenylethyl)prop-2-en-1-amine] | 12.5 | 31.7 | – |
| C[C@H](NC/C=C/c1ccccc1)c1ccccc1 [Compound 19, (S,E)-3-phenyl-N-(1-phenylethyl)prop-2-en-1-amine] | 16.5 | 11.3 | – |
| C[C@@H](NC/C=C(/c1ccccc1)c1ccc(N)cc1)c1ccccc1 [Compound 50, (R,Z)-4-(1-phenyl-3-((1-phenylethyl)amino)prop-1-en-1-yl)aniline] | 6.61 | 22.6 | – |
| C/C=C(/CN[C@H](C)c1ccccc1)c1ccccc1 [Compound 37, (R,E)-2-phenyl-N-(1-phenylethyl)but-2-en-1-amine] | 6.82 | 18.9 | – |
| CC(NCCCc1ccccc1)c1ccccc1 (centres unmarked) [Compound 11, 3-phenyl-N-(1-phenylethyl)propan-1-amine hydrochloride] | 32.4 | 42.9 | – |
| CC(NC(=O)CCc1ccccc1)c1ccccc1 (centres unmarked) [Compound 06, 3-phenyl-N-(1-phenylethyl)propanamide] | 28.9 | – | – |
| COC(=O)[C@@H](NCC=C(c1ccccc1)c1ccccc1)c1ccccc1 [Compound 43, (S)-methyl 2-((3,3-diphenylallyl)amino)-2-phenylacetate] | 30.1 | 38.4 | – |
| C[C@@H](NCC=C(c1ccccc1)c1ccccc1)c1ccc(N)cc1 [Compound 48, (R)-4-(1-((3,3-diphenylallyl)amino)ethyl)aniline] | 28.2 | 53.5 | – |
| CC(NCC=C(c1ccccc1)c1ccccc1)c1ccc(Br)cc1 (centres unmarked) [Compound 26, N-(1-(4-bromophenyl)ethyl)-3,3-diphenylprop-2-en-1-amine] | 44.8 | 43.5 | – |
| C[C@@H](NCC=C(c1ccccc1)c1ccccc1)c1ccc(F)cc1 [Compound 45, (R)—N-(1-(4-fluorophenyl)ethyl)-3,3-diphenylprop-2-en-1-amine] | 50 | 43.5 | – |
| CC[C@@H](NCC=C(c1ccccc1)c1ccccc1)c1ccccc1 [Compound 46, (R)-3,3-diphenyl-N-(1-phenylpropyl)prop-2-en-1-amine] | 37.5 | 54 | – |
| CC(OCCC(c1ccccc1)c1ccccc1)c1ccccc1 (centres unmarked) [Compound 13] | 32 | 28.9 | – |
| C[C@@H](NC/C=C/c1ccc2ccccc2c1)c1ccccc1 [Compound 33, (R,E)-3-(naphthalen-2-yl)-N-(1-phenylethyl)prop-2-en-1-amine] | 1.53 | 15.7 | – |
| CC(NC(=O)CC(c1ccccc1)c1ccccc1)c1cccs1 (centres unmarked) [Compound 14, 3,3-diphenyl-N-(1-(thiophen-2-yl)ethyl)propanamide] | 23.3 | – | – |
| C[C@@H](OCC=C(c1ccccc1)c1ccccc1)c1ccccc1 [Compound 22, (R)-(3-(1-phenylethoxy)prop-1-ene-1,1-diyl)dibenzene] | 8.14 | -14.4 | – |

| SMILES | inhibition at 4 µM [1] [%] | inhibition at 4 µM [2] [%] | % Mislocalization of K-ras when treated with 4 μM compound [1] [%] |
| --- | --- | --- | --- |
| C[C@@H](NC/C=C/c1ccccc1)c1cccc2ccccc12 [Compound 34, (R,E)-N-(1-(naphthalen-1-yl)ethyl)-3-phenylprop-2-en-1-amine] | 7.94 | 18.9 | – |
| CC(NCCC(c1ccccc1)c1ccccc1)c1cccs1 (centres unmarked) [Compound 15, 3,3-diphenyl-N-(1-(thiophen-2-yl)ethyl)propan-1-amine hydrochloride] | 25.1 | – | – |
| CC(NCC=C(c1ccccc1)c1ccccc1)c1ccc(F)cc1 (centres unmarked) [Compound 27, N-(1-(4-fluorophenyl)ethyl)-3,3-diphenylprop-2-en-1-amine] | 45.2 | 49.3 | – |
| C[C@@H](NC/C=C/c1ccccc1)c1ccccc1 [Compound 18, (R,E)-3-phenyl-N-(1-phenylethyl)prop-2-en-1-amine] | 17.6 | -2.54 | – |
| CC(CNCC(c1ccccc1)c1ccccc1)c1ccccc1 (centres unmarked) [Compound 07, N-(2,2-diphenylethyl)-2-phenylpropan-1 amine hydrochloride] | 21.9 | – | – |
| C[C@@H](NCC=C1c2ccccc2C=Cc2ccccc21)c1ccc(F)cc1 [Compound 58, (R)—N-(2 (5H-dibenzo[a,d][7]annulen-5-ylidene)ethyl)-1-(4-fluorophenyl) ethanamine] | 5.05 | -78.7 | – |
| COC(=O)[C@H](NCC=C(c1ccccc1)c1ccccc1)c1ccc(F)cc1 [Compound 57, (R)-methyl 2-((3,3-diphenylallyl)amino)-2-(4-fluorophenyl)acetate] | 12.7 | -105 | – |
| C[C@@H](NC/C=C/c1ccccc1)c1ccc2ccccc2c1 [Compound 35, (R,E)-N-(1-(naphthalen-2-yl)ethyl)-3-phenylprop-2-en-1-amine] | 26.1 | -21.6 | – |
| C[C@@H](NC/C=C(/c1ccccc1)c1ccc([N+](=O)[O-])cc1)c1ccccc1 [Compound 49, (R,Z)-3-(4-nitrophenyl)-3-phenyl-N-(1-phenylethyl)prop-2-en-1-amine] | 20.1 | 36.8 | – |
| CC(C(=O)NCC(c1ccccc1)c1ccccc1)c1ccccc1 (centres unmarked) [Compound 02] | 13.2 | – | – |
| C[C@@H](NCC1CCCCC1)c1ccccc1 [Compound 38, (R)—N-(cyclohexylmethyl)-1-phenylethanamine] | 9.67 | 32.7 | – |
| C[C@@H](NC/C=C(\c1ccccc1)c1ccc([N+](=O)[O-])cc1)c1ccccc1 [Compound 55, (R,E)-3-(4-nitrophenyl)-3-phenyl-N-(1-phenylethyl)prop-2-en-1-amine] | 12.3 | -36.6 | – |
| C[C@@H](NC(=O)CC(c1ccccc1)c1ccccc1)c1ccccc1 [Compound 03, (R)-3,3-diphenyl-N-(1-phenylethyl)propanamide] | 25.8 | – | – |
| C[C@@H](NC/C=C(\c1ccccc1)c1ccc(N)cc1)c1ccccc1 [Compound 56, (R,E)-4-(1-phenyl-3-((1-phenylethyl)amino)prop-1-en-1-yl)aniline] | 17.3 | -191 | – |
| O=C(CC(c1ccccc1)c1ccccc1)NCc1ccccc1 [Compound 05, N-benzyl-3,3-diphenylpropanamide] | 4.01 | – | – |
| C[C@H](NC(=O)CC(c1ccccc1)c1ccccc1)c1ccccc1 [Compound 04, (S)-3,3-diphenyl-N-(1-phenylethyl)propanamide] | 9.73 | – | – |
| c1ccc(CNCCC(c2ccccc2)c2ccccc2)cc1 [Compound 10, N-benzyl-3,3-diphenylpropan-1-amine] | 20.2 | – | – |
| C[C@H](NCCC(c1ccccc1)c1ccccc1)c1ccccc1.Cl [Compound 09, (S)-3,3-diphenyl-N-(1-phenylethyl)propan-1-amine hydrochloride] | – | – | 20.41 |
